# Experimental data as given in patent publication US20200231638A1, “STABILIZED ANTI-MICROBIAL PEPTIDES” (priority 2015, published 2020).
# Bridge positions count the residues as written; N and C are the ends. Square brackets hold non-standard residues; d marks the D form. Peptide text beside a SMILES is read from it. S5 = C=CCCC[C@](C)(N)C(=O)O; Nle = CCCC[C@H](N)C(=O)O
# Experiments:
# human red blood cells = assay type: cell-based; conditions: red cells of human, 1 h, 25
# Protocol: FIG. 5 is a series of line graphs depicting the hemolytic activity of magainin II and stapled analogues. Peptides were incubated with 1% (v/v) human red blood cells in phosphate-buffered solution for 1 hour at 37° C. and then the supernatant was isolated and the amount of hemoglobin released was measured at 540 nm. % hemolysis was calculated relative to an untreated control.
# Hemolytic Activity Assay:
# For the determination of hemolytic activity, human blood samples were centrifuged to isolate red blood cells (RBCs), which are then washed and suspended in phosphate-buffered saline to yield a 1% (v/v) suspension. The suspension was then added to serial dilutions of peptide stocks in water in clear round-bottom polypropylene 96-well plates and the plates were incubated for 1 hour at 37° C. After incubation, the plates were centrifuged and the supernatant was isolated to determine the amount of hemoglobin released using a spectrophotometer (570 nm), according to the equation: % Hemolysis=(Treated Absorbance−Untreated Control Absorbance)/(1% Triton-X100 Treated Absorbance−Untreated Control Absorbance). The minimum hemolytic concentration (MHC) is the peptide concentration at which there is less than 1% hemoglobin release.
# B. cereus = assay type: cell-based, Bacillus cereus
# Protocol: (§1) Antimicrobial Activity Assay:
# (§2) The following microbroth dilution protocol was adapted to determine the minimum inhibitory concentration (MIC) of each peptide. First, Mueller-Hinton broth (MHB) was passed through an anion exchange column to remove polyanionic species and generate refined MHB. […] Briefly, bacterial cells was grown overnight in refined MHB at 37° C. and then diluted and allowed to grow again for several hours. Serial dilutions of peptide stocks in water (10 μl) were prepared using clear round-bottom polypropylene 96-well plates. Then 90 μl of bacteria in refined MHB was added to give a final inoculum of 5×10^5 CFU/ml. The plates were then covered with porous tape to reduce evaporation, and incubated for 20-24 hours at 37° C. The MIC is the minimum peptide concentration at which no visible growth was observed.
# P. aeruginosa = assay type: cell-based, Pseudomonas aeruginosa
# Protocol: as §1, §2
# E. coli = assay type: cell-based, Escherichia coli
# Protocol: as §1, §2
# S. aureus = assay type: cell-based, Staphylococcus aureus
# Protocol: as §1, §2
MIC B. cereus (B. cereus),MIC P. aeruginosa (P. aeruginosa),MIC E. coli (E. coli),MIC S. aureus (S. aureus),SMILES,% Hemolysis at 25 μg/ml (human red blood cells)
>50 µg/mL,12.5 µg/mL,3.1 µg/mL,>50 µg/mL,"CCCC[C@H](NC(=O)[C@]1(C)CCCC=CCCC[C@](C)(NC(=O)[C@H](C)NC(=O)[C@H](CCCCN)NC(=O)CNC(=O)[C@H](Cc2ccccc2)NC(=O)[C@H](CCCCN)NC(=O)[C@H](CCCCN)NC(=O)[C@H](CCCCN)NC(=O)[C@H](CO)NC(=O)[C@H](Cc2c[nH]cn2)NC(=O)[C@H](CC(C)C)NC(=O)[C@H](Cc2ccccc2)NC(=O)[C@H](CCCCN)NC(=O)CNC(=O)[C@@H](NC(=O)CN)[C@@H](C)CC)C(=O)N[C@@H](C(C)C)C(=O)NCC(=O)N[C@@H](CCC(=O)O)C(=O)N1)C(=O)N[C@@H](CC(N)=O)C(=O)N[C@@H](CO)C(N)=O [Mag(i + 4)15(A9K), GIGKFLHSKKKFGKAXVGEXBNS] (H-GIGKFLHSKKKFGKA[S5]VGE[S5][Nle]NS-NH2; staple 16-20)",1.9%
25 µg/mL,25 µg/mL,3.1 µg/mL,50 µg/mL,"CCCC[C@H](NC(=O)[C@]1(C)CCCC=CCCC[C@](C)(NC(=O)[C@H](CCC(=O)O)NC(=O)[C@H](CCCCN)NC(=O)CNC(=O)[C@H](Cc2ccccc2)NC(=O)[C@H](CCCCN)NC(=O)[C@H](CCCCN)NC(=O)[C@H](C)NC(=O)[C@H](CO)NC(=O)[C@H](Cc2c[nH]cn2)NC(=O)[C@H](CC(C)C)NC(=O)[C@H](Cc2ccccc2)NC(=O)[C@H](CCCCN)NC(=O)CNC(=O)[C@@H](NC(=O)CN)[C@@H](C)CC)C(=O)N[C@@H](C(C)C)C(=O)NCC(=O)N[C@@H](CCC(=O)O)C(=O)N1)C(=O)N[C@@H](CC(N)=O)C(=O)N[C@@H](CO)C(N)=O [Mag(i + 4)15(A15E), GIGKFLHSAKKFGKEXVGEXBNS] (H-GIGKFLHSAKKFGKE[S5]VGE[S5][Nle]NS-NH2; staple 16-20)",3.8%
6.2 µg/mL,12.5 µg/mL,3.1 µg/mL,12.5 µg/mL,"CCCC[C@H](NC(=O)[C@]1(C)CCCC=CCCC[C@](C)(NC(=O)[C@H](Cc2c[nH]cn2)NC(=O)[C@H](CCCCN)NC(=O)CNC(=O)[C@H](Cc2ccccc2)NC(=O)[C@H](CCCCN)NC(=O)[C@H](CCCCN)NC(=O)[C@H](C)NC(=O)[C@H](CO)NC(=O)[C@H](Cc2c[nH]cn2)NC(=O)[C@H](CC(C)C)NC(=O)[C@H](Cc2ccccc2)NC(=O)[C@H](CCCCN)NC(=O)CNC(=O)[C@@H](NC(=O)CN)[C@@H](C)CC)C(=O)N[C@@H](C(C)C)C(=O)NCC(=O)N[C@@H](CCC(=O)O)C(=O)N1)C(=O)N[C@@H](CC(N)=O)C(=O)N[C@@H](CO)C(N)=O [Mag(i + 4)15(A15H), GIGKFLHSAKKFGKHXVGEXBNS] (H-GIGKFLHSAKKFGKH[S5]VGE[S5][Nle]NS-NH2; staple 16-20)",4.7%

# The next lines start with the molecule.
SMILES,MIC B. cereus (B. cereus),MIC P. aeruginosa (P. aeruginosa),MIC E. coli (E. coli),MIC S. aureus (S. aureus),% Hemolysis at 25 μg/ml (human red blood cells)
CCCC[C@H](NC(=O)[C@@H](NC(=O)[C@H](CCC(=O)O)NC(=O)CNC(=O)[C@@H](NC(=O)[C@H](Cc1ccccc1)NC(=O)[C@]1(C)CCCC=CCCC[C@](C)(NC(=O)[C@H](CCCCN)NC(=O)[C@H](C)NC(=O)[C@H](CO)NC(=O)[C@H](Cc2c[nH]cn2)NC(=O)[C@H](CC(C)C)NC(=O)[C@H](Cc2ccccc2)NC(=O)[C@H](CCCCN)NC(=O)CNC(=O)[C@@H](NC(=O)CN)[C@@H](C)CC)C(=O)N[C@@H](Cc2ccccc2)C(=O)NCC(=O)N[C@@H](CCCCN)C(=O)N1)C(C)C)[C@@H](C)CC)C(=O)N[C@@H](CC(N)=O)C(=O)N[C@@H](CO)C(N)=O [Mag(i + 4)10] (H-GIGKFLHSAK[S5]FGK[S5]FVGEI[Nle]NS-NH2; staple 11-15),6.2 µg/mL,12.5 µg/mL,3.1 µg/mL,6.2 µg/mL,23.6%
CCCC[C@H](NC(=O)[C@@H](NC(=O)[C@H](CCC(=O)O)NC(=O)CNC(=O)[C@@H](NC(=O)[C@]1(C)CCCC=CCCC[C@](C)(NC(=O)[C@H](CCCCN)NC(=O)[C@H](CCCCN)NC(=O)[C@H](C)NC(=O)[C@H](CO)NC(=O)[C@H](Cc2c[nH]cn2)NC(=O)[C@H](CC(C)C)NC(=O)[C@H](Cc2ccccc2)NC(=O)[C@H](CCCCN)NC(=O)CNC(=O)[C@@H](NC(=O)CN)[C@@H](C)CC)C(=O)NCC(=O)N[C@@H](CCCCN)C(=O)N[C@@H](C)C(=O)N1)C(C)C)[C@@H](C)CC)C(=O)N[C@@H](CC(N)=O)C(=O)N[C@@H](CO)C(N)=O [Mag(i + 4)11] (H-GIGKFLHSAKK[S5]GKA[S5]VGEI[Nle]NS-NH2; staple 12-16),6.2 µg/mL,6.2 µg/mL,3.1 µg/mL,12.5 µg/mL,17.5%
CCCC[C@H](NC(=O)[C@@H](NC(=O)[C@H](CCC(=O)O)NC(=O)CNC(=O)[C@]1(C)CCCC=CCCC[C@](C)(NC(=O)[C@H](Cc2ccccc2)NC(=O)[C@H](CCCCN)NC(=O)[C@H](CCCCN)NC(=O)[C@H](C)NC(=O)[C@H](CO)NC(=O)[C@H](Cc2c[nH]cn2)NC(=O)[C@H](CC(C)C)NC(=O)[C@H](Cc2ccccc2)NC(=O)[C@H](CCCCN)NC(=O)CNC(=O)[C@@H](NC(=O)CN)[C@@H](C)CC)C(=O)N[C@@H](CCCCN)C(=O)N[C@@H](C)C(=O)N[C@@H](Cc2ccccc2)C(=O)N1)[C@@H](C)CC)C(=O)N[C@@H](CC(N)=O)C(=O)N[C@@H](CO)C(N)=O [Mag(i + 4)12] (H-GIGKFLHSAKKF[S5]KAF[S5]GEI[Nle]NS-NH2; staple 13-17),3.1 µg/mL,3.1 µg/mL,3.1 µg/mL,6.2 µg/mL,76.8%
CCCC[C@H](NC(=O)[C@@H](NC(=O)[C@H](CCC(=O)O)NC(=O)[C@]1(C)CCCC=CCCC[C@](C)(NC(=O)CNC(=O)[C@H](Cc2ccccc2)NC(=O)[C@H](CCCCN)NC(=O)[C@H](CCCCN)NC(=O)[C@H](C)NC(=O)[C@H](CO)NC(=O)[C@H](Cc2c[nH]cn2)NC(=O)[C@H](CC(C)C)NC(=O)[C@H](Cc2ccccc2)NC(=O)[C@H](CCCCN)NC(=O)CNC(=O)[C@@H](NC(=O)CN)[C@@H](C)CC)C(=O)N[C@@H](C)C(=O)N[C@@H](Cc2ccccc2)C(=O)N[C@@H](C(C)C)C(=O)N1)[C@@H](C)CC)C(=O)N[C@@H](CC(N)=O)C(=O)N[C@@H](CO)C(N)=O [Mag(i + 4)13] (H-GIGKFLHSAKKFG[S5]AFV[S5]EI[Nle]NS-NH2; staple 14-18),3.1 µg/mL,6.2 µg/mL,3.1 µg/mL,6.2 µg/mL,59.7%
CCCC[C@H](NC(=O)[C@@H](NC(=O)[C@]1(C)CCCC=CCCC[C@](C)(NC(=O)[C@H](CCCCN)NC(=O)CNC(=O)[C@H](Cc2ccccc2)NC(=O)[C@H](CCCCN)NC(=O)[C@H](CCCCN)NC(=O)[C@H](C)NC(=O)[C@H](CO)NC(=O)[C@H](Cc2c[nH]cn2)NC(=O)[C@H](CC(C)C)NC(=O)[C@H](Cc2ccccc2)NC(=O)[C@H](CCCCN)NC(=O)CNC(=O)[C@@H](NC(=O)CN)[C@@H](C)CC)C(=O)N[C@@H](Cc2ccccc2)C(=O)N[C@@H](C(C)C)C(=O)NCC(=O)N1)[C@@H](C)CC)C(=O)N[C@@H](CC(N)=O)C(=O)N[C@@H](CO)C(N)=O [Mag(i + 4)14] (H-GIGKFLHSAKKFGK[S5]FVG[S5]I[Nle]NS-NH2; staple 15-19),3.1 µg/mL,3.1 µg/mL,1.6 µg/mL,3.1 µg/mL,92.1%
"CCCC[C@H](NC(=O)[C@]1(C)CCCC=CCCC[C@](C)(NC(=O)[C@H](C)NC(=O)[C@H](CCCCN)NC(=O)CNC(=O)[C@H](Cc2ccccc2)NC(=O)[C@H](CCCCN)NC(=O)[C@H](CCCCN)NC(=O)[C@H](CCC(=O)O)NC(=O)[C@H](CO)NC(=O)[C@H](Cc2c[nH]cn2)NC(=O)[C@H](CC(C)C)NC(=O)[C@H](Cc2ccccc2)NC(=O)[C@H](CCCCN)NC(=O)CNC(=O)[C@@H](NC(=O)CN)[C@@H](C)CC)C(=O)N[C@@H](C(C)C)C(=O)NCC(=O)N[C@@H](CCC(=O)O)C(=O)N1)C(=O)N[C@@H](CC(N)=O)C(=O)N[C@@H](CO)C(N)=O [Mag(i + 4)15(A9E), GIGKFLHSEKKFGKAXVGEXBNS] (H-GIGKFLHSEKKFGKA[S5]VGE[S5][Nle]NS-NH2; staple 16-20)",>50 µg/mL,>50 µg/mL,50 µg/mL,>50 µg/mL,0.6%
